Reference: patent publication US20240425518A1, “N-MACROCYCLIC AMIDE COMPOUNDS, PREPARATION METHODS THEREOF AND APPLICATIONS THEREOF AS MEDICAMENTS” (Chengdu FANXI Biopharma Co., Ltd., priority 2023, published 2024)
Changes are numbered by the printed parent chain.

What was measured:
[1] = from C=CCOCc1cc(NC(=O)OC(C)(C)C)cc(Nc2nccc(-c3cccc(COCC=C)c3)n2)c1; rcm bond; Zhan Catalyst 1B; dichloromethane; 6.66 mM; 50.0 °C; 3.0 h
Ab1 (h) = target: T1, Ab1 (h) (Homo sapiens, UniProt P00519); test: Radioisotope labeling kinase assay (Eurofins), Ab1; format: biochemical; details: 1 μM compound; read-out: Inhibitory activity per unit concentration/Activity % Ab1 (h)
T1 construct: purchased Eurofins
T1 sequence (P00519 whole entry): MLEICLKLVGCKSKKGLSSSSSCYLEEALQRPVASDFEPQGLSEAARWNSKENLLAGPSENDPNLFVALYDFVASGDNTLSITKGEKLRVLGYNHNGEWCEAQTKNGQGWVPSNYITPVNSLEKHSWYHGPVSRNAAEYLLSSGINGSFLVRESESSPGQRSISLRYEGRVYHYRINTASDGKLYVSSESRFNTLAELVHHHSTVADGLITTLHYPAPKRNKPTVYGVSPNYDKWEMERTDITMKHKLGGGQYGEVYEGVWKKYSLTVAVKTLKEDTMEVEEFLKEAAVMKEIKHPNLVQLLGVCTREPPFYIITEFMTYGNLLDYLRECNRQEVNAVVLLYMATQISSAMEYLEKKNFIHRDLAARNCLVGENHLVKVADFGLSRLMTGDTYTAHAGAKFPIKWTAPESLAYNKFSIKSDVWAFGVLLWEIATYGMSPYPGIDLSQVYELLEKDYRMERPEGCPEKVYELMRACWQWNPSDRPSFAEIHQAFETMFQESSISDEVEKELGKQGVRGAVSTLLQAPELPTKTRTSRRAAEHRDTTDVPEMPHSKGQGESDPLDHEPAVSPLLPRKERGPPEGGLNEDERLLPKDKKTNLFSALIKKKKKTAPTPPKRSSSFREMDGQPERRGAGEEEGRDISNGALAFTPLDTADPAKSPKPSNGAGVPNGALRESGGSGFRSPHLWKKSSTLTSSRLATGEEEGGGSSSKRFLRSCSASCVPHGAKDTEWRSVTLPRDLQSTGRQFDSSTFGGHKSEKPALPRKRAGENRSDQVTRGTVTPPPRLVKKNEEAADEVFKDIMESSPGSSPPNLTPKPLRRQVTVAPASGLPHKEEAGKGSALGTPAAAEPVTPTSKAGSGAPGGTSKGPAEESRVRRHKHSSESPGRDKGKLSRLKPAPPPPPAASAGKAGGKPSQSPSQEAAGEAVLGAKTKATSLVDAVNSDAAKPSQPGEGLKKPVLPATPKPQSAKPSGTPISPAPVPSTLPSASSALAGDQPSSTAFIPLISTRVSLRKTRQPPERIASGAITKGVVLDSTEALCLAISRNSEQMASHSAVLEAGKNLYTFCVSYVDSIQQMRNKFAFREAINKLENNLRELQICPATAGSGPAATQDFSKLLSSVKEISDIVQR
Procedure: (§1) An activity to a human recombinant protein kinase of a series of compounds was determined by a radioisotope labeling method, which was provided by Eurofins Company. A compound to be detected was mixed with a corresponding protein kinase buffer (20 mM propyl sulfonate (MOPS, […].), 1 mM EDTA, 0.10 β-mercaptoethanol, 0.010 Brij-35, […], and 1 mg/mL BSA), the mixture was added into a reaction system (100 μM reaction substrate […], 8 mM MOPS with a pH value of 7.0, 10 mM MgAcetate, 0.2 mM EDTA, and a certain concentration of γ-^33P-ATP). After adding an MgATP composite solution, the reaction was started at room temperature for 40 minutes, and the reaction was terminated by adding 5 μl of […] solution. Then, 10 μl of reaction solution was dropwise added onto a filter and washed with 75 mM phosphoric acid solution for three times, 5 minutes each time, then washed with methanol once again, and dried and subjected to scintillation counting.

BTK (h) = target: T2, BTK (h) (Homo sapiens, UniProt Q06187); test: Radioisotope labeling kinase assay (Eurofins), BTK; format: biochemical; details: 1 μM compound; read-out: Inhibitory activity per unit concentration/Activity % BTK (h)
T2 construct: purchased Eurofins
T2 sequence (Q06187 whole entry): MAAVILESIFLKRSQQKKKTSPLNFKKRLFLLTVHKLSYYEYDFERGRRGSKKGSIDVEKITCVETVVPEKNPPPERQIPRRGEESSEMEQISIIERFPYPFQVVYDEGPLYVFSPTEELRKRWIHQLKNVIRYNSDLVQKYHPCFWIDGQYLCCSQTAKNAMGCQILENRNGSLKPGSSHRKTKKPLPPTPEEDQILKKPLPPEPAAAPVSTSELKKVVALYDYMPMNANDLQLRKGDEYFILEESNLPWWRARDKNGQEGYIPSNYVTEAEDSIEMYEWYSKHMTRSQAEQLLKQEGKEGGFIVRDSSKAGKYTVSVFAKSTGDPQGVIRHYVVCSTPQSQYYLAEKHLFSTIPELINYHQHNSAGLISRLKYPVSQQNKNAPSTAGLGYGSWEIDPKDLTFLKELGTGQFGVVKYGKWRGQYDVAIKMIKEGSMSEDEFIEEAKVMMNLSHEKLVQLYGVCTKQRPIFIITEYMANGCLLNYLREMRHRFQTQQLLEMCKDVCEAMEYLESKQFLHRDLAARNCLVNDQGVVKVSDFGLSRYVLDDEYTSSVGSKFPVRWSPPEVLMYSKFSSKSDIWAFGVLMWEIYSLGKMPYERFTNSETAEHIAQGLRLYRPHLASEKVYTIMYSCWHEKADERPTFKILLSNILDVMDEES
Procedure: as §1

Flt3 (D835Y) (h) = target: T3, Flt3 (D835Y) (h) (Homo sapiens, UniProt P36888, D835Y); test: Radioisotope labeling kinase assay (Eurofins), Flt3 (D835Y); format: biochemical; details: 1 μM compound; read-out: Inhibitory activity per unit concentration/Activity % Flt3 (D835Y) (h)
T3 construct: purchased Eurofins
T3 sequence (P36888 27-993 D835Y): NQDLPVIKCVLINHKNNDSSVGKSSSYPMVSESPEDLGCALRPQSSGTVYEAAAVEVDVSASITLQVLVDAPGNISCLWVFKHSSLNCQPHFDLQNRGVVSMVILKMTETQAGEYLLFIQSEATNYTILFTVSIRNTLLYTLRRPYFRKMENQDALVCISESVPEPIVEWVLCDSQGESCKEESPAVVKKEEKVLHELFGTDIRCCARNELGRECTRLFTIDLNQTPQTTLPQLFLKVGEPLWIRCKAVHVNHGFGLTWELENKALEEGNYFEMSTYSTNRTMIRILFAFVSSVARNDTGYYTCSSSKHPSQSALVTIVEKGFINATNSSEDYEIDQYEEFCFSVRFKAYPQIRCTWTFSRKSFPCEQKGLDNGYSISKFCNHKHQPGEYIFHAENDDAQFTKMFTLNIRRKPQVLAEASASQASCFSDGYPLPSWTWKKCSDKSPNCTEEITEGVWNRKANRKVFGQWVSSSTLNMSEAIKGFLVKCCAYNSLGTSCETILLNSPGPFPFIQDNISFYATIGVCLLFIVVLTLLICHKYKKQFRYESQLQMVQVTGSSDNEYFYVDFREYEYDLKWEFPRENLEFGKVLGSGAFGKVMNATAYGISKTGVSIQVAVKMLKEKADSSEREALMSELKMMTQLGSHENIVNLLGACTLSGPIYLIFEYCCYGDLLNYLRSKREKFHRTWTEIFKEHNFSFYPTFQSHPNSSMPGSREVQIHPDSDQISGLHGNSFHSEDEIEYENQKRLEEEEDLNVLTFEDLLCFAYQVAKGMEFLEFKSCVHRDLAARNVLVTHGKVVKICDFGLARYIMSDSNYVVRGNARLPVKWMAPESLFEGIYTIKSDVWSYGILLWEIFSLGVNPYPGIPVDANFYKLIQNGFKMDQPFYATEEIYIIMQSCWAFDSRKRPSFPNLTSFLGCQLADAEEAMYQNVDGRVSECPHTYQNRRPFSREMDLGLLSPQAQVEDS
Procedure: as §1

Flt3 (h) = target: T4, Flt3 (h) (Homo sapiens, UniProt P36888); test: Radioisotope labeling kinase assay (Eurofins), Flt3; format: biochemical; details: 1 μM compound; read-out: Inhibitory activity per unit concentration/Activity % Flt3 (h)
T4 construct: purchased Eurofins
T4 sequence (P36888 27-993): T3 sequence (P36888 27-993 D835Y) with Y809D
Procedure: as §1

JAK3 (h) = target: T5, JAK3 (h) (Homo sapiens, UniProt P52333); test: Radioisotope labeling kinase assay (Eurofins), JAK3; format: biochemical; details: 1 μM compound; read-out: Inhibitory activity per unit concentration/Activity % JAK3 (h)
T5 construct: purchased Eurofins
T5 sequence (P52333 1-1124): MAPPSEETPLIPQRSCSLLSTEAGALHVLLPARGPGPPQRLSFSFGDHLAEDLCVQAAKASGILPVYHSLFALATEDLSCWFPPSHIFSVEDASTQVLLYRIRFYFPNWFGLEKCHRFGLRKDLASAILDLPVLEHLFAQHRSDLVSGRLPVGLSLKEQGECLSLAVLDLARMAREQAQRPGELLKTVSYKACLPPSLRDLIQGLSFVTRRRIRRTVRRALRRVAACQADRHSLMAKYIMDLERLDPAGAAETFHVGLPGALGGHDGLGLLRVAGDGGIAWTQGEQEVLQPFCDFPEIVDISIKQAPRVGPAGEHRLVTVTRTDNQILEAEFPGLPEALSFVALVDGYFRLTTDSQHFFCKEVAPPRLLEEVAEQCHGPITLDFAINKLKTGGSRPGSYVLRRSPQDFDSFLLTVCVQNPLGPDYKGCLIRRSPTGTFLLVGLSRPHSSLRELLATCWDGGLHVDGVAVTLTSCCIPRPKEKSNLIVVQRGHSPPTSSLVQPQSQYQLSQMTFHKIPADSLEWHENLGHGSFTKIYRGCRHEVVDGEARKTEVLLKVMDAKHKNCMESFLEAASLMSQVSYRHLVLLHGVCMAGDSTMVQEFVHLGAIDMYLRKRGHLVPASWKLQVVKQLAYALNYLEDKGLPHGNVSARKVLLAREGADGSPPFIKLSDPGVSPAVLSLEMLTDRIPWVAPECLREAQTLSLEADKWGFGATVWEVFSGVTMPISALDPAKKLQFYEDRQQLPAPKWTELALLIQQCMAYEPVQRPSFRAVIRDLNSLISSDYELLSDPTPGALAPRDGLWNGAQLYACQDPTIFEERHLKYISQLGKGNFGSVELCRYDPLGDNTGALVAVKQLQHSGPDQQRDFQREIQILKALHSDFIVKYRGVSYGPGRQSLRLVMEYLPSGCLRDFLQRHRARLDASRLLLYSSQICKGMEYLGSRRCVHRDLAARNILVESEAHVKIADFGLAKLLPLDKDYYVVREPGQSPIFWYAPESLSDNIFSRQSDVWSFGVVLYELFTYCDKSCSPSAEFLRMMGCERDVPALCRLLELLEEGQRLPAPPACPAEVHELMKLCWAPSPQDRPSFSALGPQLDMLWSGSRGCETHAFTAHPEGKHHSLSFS
Procedure: as §1

activity at 1 µM (Ab1 (h)) [%]	activity at 1 µM (BTK (h)) [%]	activity at 1 µM (Flt3 (D835Y) (h)) [%]	activity at 1 µM (Flt3 (h)) [%]	activity at 1 µM (JAK3 (h)) [%]	SMILES	ring closure, yield of all isomers [1] [%]
					CC(C)(C)OC(=O)Nc1cc2cc(c1)Nc1nccc(n1)-c1cccc(c1)COCC=CCOC2	50
35	64	0	6	83	CN1C/C=C/COCc2cccc(c2)-c2ccnc(n2)Nc2cc(cc(NC(=O)/C=C/CN3CCCC3)c2)C1 [XVI-25]	
45	77	2	8	52	CN1C/C=C/COCc2cccc(c2)-c2ccnc(n2)Nc2cc(cc(NC(=O)/C=C/c3ccc(C#N)cc3)c2)C1 [XVI-27]	
60	78	3	10	36	CN1C/C=C/COCc2cccc(c2)-c2ccnc(n2)Nc2cc(cc(NC(=O)/C=C/C(F)(F)F)c2)C1 [XVI-29]	
55	66	2	7	61	CN1C/C=C/COCc2cccc(c2)-c2ccnc(n2)Nc2cc(cc(NC(=O)/C=C/CN3CCOCC3)c2)C1 [XVI-30]	
50	86	2	7	57	C=CC(=O)Nc1cc2cc(c1)Nc1nccc(n1)-c1cccc(c1)COC/C=C/CN(C)C2 [XVI-31]	
50	82	0	5	30	CN1C/C=C/COCc2cccc(c2)-c2ccnc(n2)Nc2cc(cc(NC(=O)/C=C/c3cnc[nH]3)c2)C1 [XVI-32]	
38	86	10	2	17	O=C(/C=C/C(=O)N1CCCC1)Nc1cc2cc(c1)Nc1nccc(n1)-c1cccc(c1)COC/C=C/COC2 [XVI-33]	
98	87	79	125	87	C1=C/COCc2ccc(O/C=C/CN3CCCC3)c(c2)Nc2nccc(n2)-c2cccc(c2)CCC/1 [XVI-34]	
13	36	-1	5	36	CCCC#CC(=O)Nc1cc2cc(c1)Nc1nccc(n1)-c1cccc(c1)COC/C=C/COC2 [XVII-2]	
8	17	0	2	14	O=C(C#CCN1CCOCC1)Nc1cc2cc(c1)Nc1nccc(n1)-c1cccc(c1)COC/C=C/COC2 [XVII-3]	
52	80	3	7	83	CCCC#CC(=O)Nc1cc2cc(c1)Nc1nccc(n1)-c1cccc(c1)COC/C=C/CN(C)C2 [XVII-4]	
45	72	1	4	60	CN1C/C=C/COCc2cccc(c2)-c2ccnc(n2)Nc2cc(cc(NC(=O)C#CCN3CCOCC3)c2)C1 [XVII-5]	
